For test [1], the system named is patient with ovarian cancer. As to conditions: monotherapy.
The test system of test [2] is metastatic tumor tissue (tumor cells and immune cells) of a patient with ovarian cancer in PVDF capsule tubes. The experiment in a line: IO-FIVE capsule test in nude mice, ovarian cancer patient of Example 3 (CTG cell viability and FACS, day 10). It is filed as in vivo, human. The conditions noted are these: tumor sample after addition of autologous TIL cells (C/T 8).
From the text: Experimental Animals, Sample Collection, and Cell Processing were the Same as in Example 1.
The following was collected for cell phenotyping identification: a single cell suspension of patient tumor tissue samples before purification, tumor cells after purification, enriched immune cells (containing CD3+ T cells) eluted from the column, and a cell suspension in which tumor cells after purification and immune cells were mixed in a certain ratio (1.5:1 to 15:1), to yield a final cell count of 0.1 to 0.3 million cells. […]
Cells within the Tubing The basic operational steps were the same as those in Example 1. According to the data analyzed by flow cytometry, the CD45− tumor cells and CD3+ T cells were mixed in a certain ratio (about 1.5:1-15:1). […]
3-21 days after administration (day 10 here), the mice were euthanized, and the PVDF tubes were removed. Cell viability was quantified by the CellTiter-Glo chemiluminescence method, and the relative ratio and basic phenotype of tumor cells and immune cells in PVDF tubes were detected by flow cytometry.
Adjusted to the viability value of the cells in the control vehicle group (as shown in FIG. 9), the proliferation viability of all cells in the drug administration group was calculated, and then the efficacy of the drug to be tested was calculated. […]

The test system of test [3] is peripheral blood tumor cells and immune cells of acute myeloid leukemia (AML) patients in PVDF capsule tubes. The experiment in a line: IO-FIVE capsule test in nude mice, two AML patients #123 and #124 of Example 5 (CTG cell viability and FACS, day 14). The format is in vivo, human. As for the experimental part:
BALB/c Nude mice (available from Jiangsu Jicui Yaokang Biotechnology Co. Ltd.) aged 6-8 weeks were ordered from the supplier and kept in the animal house at SPF level. The animals were adaptively kept for at least 3 days before the start of the experiment.
Fresh peripheral blood samples from two acute myeloid leukemia (AML) patients (in the acute phase of AML) were collected and placed in anticoagulant tubes and transported to the central laboratory by cold chain (2-8° C.) within a short period of time.
The peripheral blood samples of different patients were transferred into the biological safety cabinet. The cells were centrifuged using a gradient centrifugation gel (available from SIGMA) with a density of 1.077 g/mL at room temperature. […] After resuspension in cell culture medium (available from Gibco), the cells were counted. […]
3-21 days after administration (e.g., day 14 here), the mice were euthanized, and the PVDF tubes were removed. Cell viability was quantified by the CellTiter-Glo chemiluminescence method. Changes in the relative ratio and phenotype of tumor cells and immune cells in PVDF tubes were detected by flow cytometry. Bioinformatic changes of tumor cells and immune cells in PVDF capsule tubes of clinical samples at day 0 or day 10 were detected by molecular biological methods (RNA sequencing, and DNA sequencing technology, etc.). […]

Test [4] concerns peripheral blood and/or bone marrow tumor cells and immune cells of acute myeloid leukemia (AML) patients in PVDF capsule tubes. Briefly: IO-FIVE capsule test in nude mice, three AML patients #128, #129, #131 of Example 6 (CTG cell viability and FACS, day 14). The format is in vivo, human. The procedure: Fresh peripheral blood samples and/or bone marrow from three acute myeloid leukemia (AML) patients (in the acute phase) were collected and placed in anticoagulant tubes, and transported to the central laboratory by cold chain (2-8° C.) within a short period of time.
Quality control analysis was performed according to the data obtained by flow cytometry so as to meet the requirement that the ratio of CD8+ T cells was at least more than 0.5% (the required minimum concentration), and the tumor cells (CD45^low/+ SSC-A^mid/hi CD33+/CD38+ cells) and the CD45^high SSC-A^lowCD3+ T lymphocytes were uniformly mixed according to a certain ratio (C/T (CD38+Cancer/CD3+T)=1.5:1 to 15:1), and then filled into PVDF tubes and sealed.
Cell viability as measured by luminescence (CTG method) on day 14: according to the viability value of the cells in the control group (as shown in FIG. 21), the proliferation viability of all the cells in the drug administration group was calculated, and then the efficacy of the drug was calculated.
Flow cytometry detection on day14: the relative ratio of tumor cells and immune cells in PVDF tubes was detected by flow cytometry. The differences between tumor cells and immune cells in the drug group and the control group were compared (as shown in FIG. 22). The results were analyzed by Flowjo software.

`NC(=O)c1cccc2cn(-c3ccc([C@@H]4CCCNC4)cc3)nc12` [PARP inhibitor, Niraparib]: the “clinical response of the patient” value in test [1] is on record as “poor clinical response”. Further, the “viability of total cells / overall tumor viability (CTG)” value in test [2] is reported as “neither PD1 antibody nor PARP inhibitor mono-therapy could inhibit the overall tumor viability”.

Regarding Daratumumab [CD38 antibody], the “response (cell viability by CTG, FACS)” value in test [3] (patient #123, C/T about 15:1, CD8+ T 0.21%) was “did not respond”. Moreover, in test [3] (patient #124, C/T about 6:1), the “response / inhibitory effect on cell viability (CTG) compared with control vehicle” value is listed as “great response”. Also, the “proportion of cancer blasts in the capsules (FACS)” value in test [4] (patient #128) and in test [4] (patient #129) was “cancer blasts still occupied a dominant proportion in the capsules” throughout. In addition, in test [4] (patient #131), the “AML blasts and CD8+ TILs (FACS)” value was “less AML blasts and more CD8+ TILs”. In addition, the “response (cell viability, CTG)” value in test [4] (patient #131, C/T 4.5) is “positive response”.

Values taken from US20240076380A1, “DEVICE AND METHODS FOR RAPIDLY SCREENING AND TREATING CLINICAL CANCER PATIENTS WITH IMMUNOREGULATORY DRUGS” (Shanghai Lide Biotech Co., Ltd., priority 2022, published 2024).
